One data set deals with Fmr1 KO mice. Kind of data set: novel object recognition task in Fmr1 KO mice. It is filed as in vivo, mouse. Conditions: for discrimination index level: chronic. The procedure: Fmr1 KO mice and wild type mice were obtained and housed four per cage in a temperature of 21° C.±1° C. and humidity of 55%±10% controlled environment. Food and water were available ad libitum. All experiments were performed during the light phase of a 12 hour light/dark cycle (08:00 to 20:00). Animals were handled for one week before the start of experiments. All behavioural tests were performed by researchers blind to the different experimental groups.
On day one mice were habituated for 10 minutes to the empty V-maze in which the task was to be performed. On the second day the mice went back to the maze for 10 minutes which contained two identical objects at the end of each corridor in the V-maze.
The following day the mice were placed again in the same maze for a further 10 minutes but one of the familiar objects was replaced for a novel object. The total time spent exploring the novel and familiar object was recorded. A discrimination index was calculated as the difference between the time spent exploring the novel and familiar object divided by the total time exploring the two objects. A high discrimination index (0.3-0.5) is considered to reflect memory retention for the familiar object.
Adult mice (10-15 weeks old) were treated either acutely with one dose of CBDV on […] or were treated once daily with CBDV for 7 consecutive days. Mice were evaluated in the novel object recognition task after the first and sixth day of CBDV administration. Doses of CBDV used were 2, 10, 20, 100 and 200 mg/kg.

A further data set has as its system MeCP2 KO mice. Kind of data set: survival of MeCP2 KO and WT mice. Type of data set: in vivo, mouse. Conditions: for survival rate: vehicle 25%. The protocol:
CBDV was administered daily at the dose of 2, 20 and 200 mg/kg i.p. starting from PND 28 and the following signs were scored every other day: hindlimb clasping (indication of motor imbalance), tremor, gait (measure of coordination), breathing, mobility and general condition.
The CBDV was dissolved in ethanol, cremophor and saline (1:1:18).
Starting from PND 28, mice received a daily intraperitoneal injection of CBDV (or vehicle) at the dose of 2, 20 and 200 mg/kg. Animals were then scored every other day to evaluate the effect of CBDV treatment on motor symptoms (hindlimb clasping, gait, mobility) as well as neurological signs and general conditions (breathing abnormalities, tremors and general condition) present in MeCP2 knockout (KO) mice.

The next data set has as its system VPA-exposed rats. Kind of data set: locomotor activity and repetitive behaviours, prenatal VPA model. It is filed as in vivo, rat. The procedure: Pregnant Sprague-Dawley rats (Charles River, Calco, Italy), received a single intraperitoneal injection of 500 mg/kg sodium valproate on the 12.5 day after conception, and control females were injected with physiological saline at the same time. Sodium valproate (Sigma Aldrich, Milan, IT) was dissolved in saline at a concentration of 250 mg/ml.
CBDV was dissolved in ethanol, cremophor and saline (1:1:18). Symptomatic treatment with CBDV at doses of 0.2, 2, 20, and 100 mg/kg/day i.p. was performed starting from PND 34 (early adolescence) till 56 (early adulthood), both in male and female offspring of dams injected with VPA 500 mg/kg (or vehicle) on day 12.5 after conception. At PND 56, a series of behavioural tests was performed in order to assess the effect of chronic CBDV on sociability, social novelty, short-term memory, locomotion and stereotyped/repetitive behaviours.
Locomotor activity and repetitive behaviours: Locomotor activity was recorded in an activity cage for 20 minutes with the aid of Anymaze program (Ugo Basile, Italy). In this period, repetitive behaviours (self-grooming and digging) were measured by an observer blind to the treatment group.

The subject of another data set is PCP-treated rats. Kind of data set: social interaction test in sub-chronic PCP treated rats. It is filed as in vivo, rat. The procedure:
Female hooded-Lister rats were used for this experiment. Rats were housed in groups of 5 under standard laboratory conditions under a 12 hr light: dark cycle, lights on at 0700 hr. Testing was carried out in the light phase.
Rats were randomly assigned to two treatment groups and treated with vehicle, n=20 (distilled water, i.p.) or Phencyclidine hydrochloride (PCP), n=100 (2 mg/kg, i.p. twice daily for 7-days). PCP was dissolved in distilled water. This was followed by a 7-day wash out period before the rats were tested following acute treatment with CBDV, risperidone or vehicle.
Risperidone (0.1 mg/kg) was dissolved in a minimum volume of acetic acid, made up to volume with distilled water and pH adjusted to 6 with 0.1M NaOH and administered via the i.p. route in a volume of 1 ml/kg, 60 min prior to testing.
CBDV at 2, 10 or 20 mg/kg was dissolved in 2:1:17 (Ethanol:Cremofor:Saline 0.9%) and administered via the i.p. route in a volume of 5 ml/kg, 60 min prior to testing.
The social interaction test is performed in an open-field comprising a square box made of Plexiglas (52×52×31 cm) placed 27 cm above the floor on a moveable trolley. The floor of the box is white with black gridlines forming 9 identical squares on it. All other walls are black. A video camera connected to a video recorder and monitor is positioned above the box. The object used for the test consists of a heavy structure made of metal that cannot be displaced by the animals.
The rats were habituated to the test environment and arena prior to the test day. Habituation consists of placing all rats from one cage together in the empty test arena for one hour for three days including the day before the test day.
Pairs of rats, weight matched (15-20 g) and unfamiliar to each other, receiving either no treatment (n=70 “conspecific” rats) or different treatments (PCP and Vehicle; n=10 “tested” rats or PCP+Drug; n=50 “tested” rats) were placed in the test arena together for 10 min and behaviour assessed as described below.
An inanimate object such as an unopened drinks can is also placed in the centre of the arena to measure any differences in interaction of the test animal with an unfamiliar animal as opposed to an unfamiliar object. After each 10 minute trial, the object and arena are cleaned with 10% alcohol in an attempt to remove traces of any olfactory cues. All testing is carried out under standard room illumination levels (70 cd/m2).
Behaviour in both trials was recorded on video for subsequent blind scoring. A behavioural scoring software program (Hindsight, Scientific programming services) is used to score the following parameters: • Investigative sniffing behaviour: sniffing the conspecific's snout or parts of the body including the anogenital region; • Following: rat moves after the conspecific i.e. a vehicle treated rat of the same species, around the arena; • Avoidances: actively turning away when approached by the conspecific animal; • Investigation of object: exploration of object placed in centre of the arena; and • Locomotor activity is recorded by counting the total number of sectors (i.e. lines) crossed by the test rat.

For the molecule `C=C(C)[C@@H]1CCC(C)=C[C@H]1c1c(O)cc(CCC)cc1O` [CBDV, Cannabidivarin], the “increase of discrimination index over vehicle treated mice” value in the data set on Fmr1 KO mice (acute treatment, 2 mg/kg) is “not significant”. In the data set with Fmr1 KO mice (acute treatment, any of the doses), the discrimination index entry is recorded as “no effect”. Further, the “discrimination index over vehicle treated knockout mice” value with Fmr1 KO mice (chronic (once daily for 7 days), 20 and 100 mg/kg) is on record as “statistically significant increase”. Moreover, the discrimination index level entry in the data set on Fmr1 KO mice (20 mg/kg) and in the data set on Fmr1 KO mice (100 mg/kg) was “over 0.3” each time. Also, the survival rate in the data set with MeCP2 KO mice (MeCP2 KO mice, 2 mg/kg) is 62.5%; with MeCP2 KO mice (MeCP2 KO mice, 20 mg/kg) it was 62.5%; with MeCP2 KO mice (MeCP2 KO mice, 200 mg/kg) it was 75%. Moreover, in the data set on MeCP2 KO mice (MeCP2 KO mice, all three doses (2, 20, 200 mg/kg)), the “survival measured at PND 67” value was “increase survival”. Moreover, in the data set with MeCP2 KO mice (WT mice treated with CBDV), the lethality result is “No lethality”. Also, the “time spent in compulsive self-grooming” value in the data set on VPA-exposed rats (females, 2 and 100 mg/kg) is “significantly normalize”; in the data set with VPA-exposed rats (males, 20 mg/kg), “significantly normalize”. For the same molecule, the “locomotion increased by VPA” value in the data set with VPA-exposed rats (males, 2, 20 and 100 mg/kg) was “normalize”. Besides, the “PCP effects on social interaction (sniffing, following, avoiding)” value in the data set with PCP-treated rats was “reverse these effects in a statistically significant manner”. For the same molecule, in the data set on PCP-treated rats (CBDV 20 mg/kg), the “time spent avoiding the other rat” value is on record as “reduce”. For the same molecule, the “time spent following the other rat” value with PCP-treated rats (CBDV 20 mg/kg) is on record as “increased”. The “time spent sniffing the other rat” value in the data set on PCP-treated rats (CBDV 10 and 20 mg/kg) is “significantly increased”.

These data come from US20190070128A1, “USE OF CANNABIDIVARIN IN THE TREATMENT OF AUTISM SPECTRUM DISORDER, ASSOCIATED DISORDERS AND SCHIZOPHRENIA” (GW Research Limited, priority 2016, published 2019).
